Data taken from patent US20240299386A1, “Novel imidazole derivatives having protein kinase inhibitory activity and uses thereof” (INDUSTRY-UNIVERSITY COOPERATION FOUNDATION HANYANG …, priority 2021, published 2024).

Target: JNK3 (Homo sapiens, UniProt P53779)
Test: Measurement of JNK3 enzyme activity
Format: biochemical
Details: Table 1
Excerpt: Experimental Example 1. Measurement of JNK3 Enzyme Activity

JNK3, sequence (P53779 whole entry, species assumed): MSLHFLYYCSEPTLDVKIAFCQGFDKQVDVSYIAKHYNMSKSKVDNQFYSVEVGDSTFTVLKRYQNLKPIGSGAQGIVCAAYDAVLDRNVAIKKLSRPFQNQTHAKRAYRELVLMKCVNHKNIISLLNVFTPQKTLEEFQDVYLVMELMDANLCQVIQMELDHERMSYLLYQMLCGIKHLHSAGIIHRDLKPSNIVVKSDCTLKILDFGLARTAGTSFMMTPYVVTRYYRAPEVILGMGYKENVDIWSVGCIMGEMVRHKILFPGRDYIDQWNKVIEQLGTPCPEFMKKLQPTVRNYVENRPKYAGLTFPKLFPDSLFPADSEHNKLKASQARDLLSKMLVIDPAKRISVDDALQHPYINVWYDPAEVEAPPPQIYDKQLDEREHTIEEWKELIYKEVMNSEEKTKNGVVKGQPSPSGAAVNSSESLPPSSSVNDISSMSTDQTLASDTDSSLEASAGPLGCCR

| IC50 | Structure (SMILES) |
| --- | --- |
| > 1000 nM | CNC(=O)C1Cc2nc(-c3ccc(F)c(C(F)(F)F)c3)n(-c3ccnc(N[C@@H]4CCN(C(=O)C5CC5)C4)n3)c2C1 (stereo partly drawn) [Compound 25a, 1-(2-(((R)-1-(cyclopropanecarbonyl)pyrrolidine-3-yl)amino)pyrimidin-4-yl)-2-(4-fluoro-3-(trifluoromethyl)phenyl)-N-methyl-1,4,5,6-tetracyclopenta[d]imidazol-5-carboxamide] |
| > 1000 nM | CNC(=O)C1Cc2nc(-c3ccc(F)c(C(F)(F)F)c3)n(-c3ccnc(NC4CCCN(C(=O)C5CC5)C4)n3)c2C1 (single isomer, unassigned) [Compound 27a] |
| < 30 nM | CCOC(=O)C1Cc2nc(-c3ccc(F)c(C(F)(F)F)c3)n(-c3ccnc(N[C@H]4CCCN(C(=O)C5CC5)C4)n3)c2C1 (stereo partly drawn) [Compound 18a, ethyl 1-(2-(((S)-1-(cyclopropanecarbonyl)piperidin-3-yl)amino)pyrimidin-4-yl)-2-(4-fluoro-3-(trifluoromethyl)phenyl)-1,4,5,6-tetracyclopenta[d]imidazol-5-carboxylate] |
| > 1000 nM | NC(=O)C1Cc2nc(-c3ccc(F)c(C(F)(F)F)c3)n(-c3ccnc(NC4CCCN(C(=O)C5CC5)C4)n3)c2C1 (single isomer, unassigned) [Compound 23a] |

Same assay, conditions: Table 2

| Structure (SMILES) | IC50 |
| --- | --- |
| NC(=O)C1Cc2nc(-c3ccc(Cl)c(Cl)c3)n(-c3ccnc(N[C@@H]4CCN(C(=O)C5CC5)C4)n3)c2C1 (stereo partly drawn) [Compound 21b, 1-(2-(((R)-1-(cyclopropanecarbonyl)pyrrolidine-3-yl)amino)pyrimidin-4-yl)-2-(3,4-dichlorophenyl)-1,4,5,6-tetracyclopenta[d]imidazol-5-carboxamide] | < 30 nM |
| CCOC(=O)C1Cc2nc(-c3ccc(Cl)c(Cl)c3)n(-c3ccnc(N[C@@H]4CCN(C(=O)C5CC5)C4)n3)c2C1 (stereo partly drawn) [Compound 17b, ethyl 1-(2-(((R)-1-(cyclopropanecarbonyl)pyrrolidine-3-yl)amino)pyrimidin-4-yl)-2-(3,4-dichlorophenyl)-1,4,5,6-tetracyclopenta[d]imidazol-5-carboxylate] | < 30 nM |
| NC(=O)C1Cc2nc(-c3ccc(Cl)c(Cl)c3)n(-c3ccnc(N[C@@H]4CCCN(C(=O)C5CC5)C4)n3)c2C1 (stereo partly drawn) [Compound 23b, 1-(2-(((R)-1-(cyclopropanecarbonyl)piperidin-3-yl)amino)pyrimidin-4-yl)-2-(3,4-dichlorophenyl)-1,4,5,6-tetracyclopenta[d]imidazol-5-carboxamide] | < 30 nM |

Same assay, conditions: Table 3

| IC50 | Structure (SMILES) |
| --- | --- |
| < 30 nM | CCOC(=O)C1Cc2nc(-c3ccc4ccccc4c3)n(-c3ccnc(N[C@H]4CCCN(C(=O)C5CC5)C4)n3)c2C1 (stereo partly drawn) [Compound 18c, ethyl 1-(2-(((S)-1-(cyclopropanecarbonyl)piperidin-3-yl)amino)pyrimidin-4-yl)-2-(naphthalen-2-yl)-1,4,5,6-tetracyclopenta[d]imidazol-5-carboxylate] |
| < 30 nM | CCOC(=O)C1Cc2nc(-c3ccc4ccccc4c3)n(-c3ccnc(N[C@@H]4CCCN(C(=O)C5CC5)C4)n3)c2C1 (stereo partly drawn) [Compound 19c, ethyl 1-(2-(((R)-1-(cyclopropanecarbonyl)piperidin-3-yl)amino)pyrimidin-4-yl)-2-(naphthalen-2-yl)-1,4,5,6-tetracyclopenta[d]imidazol-5-carboxylate] |
| < 30 nM | NC(=O)C1Cc2nc(-c3ccc4ccccc4c3)n(-c3ccnc(N[C@H]4CCCN(C(=O)C5CC5)C4)n3)c2C1 (stereo partly drawn) [Compound 22c, 1-(2-(((S)-1-(cyclopropanecarbonyl)piperidin-3-yl)amino)pyrimidin-4-yl)-2-(naphthalen-2-yl)-1,4,5,6-tetracyclopenta[d]imidazol-5-carboxamide] |

Same assay, conditions: Table 4

| IC50 | Structure (SMILES) |
| --- | --- |
| > 1000 nM | NC(=O)C1Cc2nc(-c3ccc4c(c3)OCO4)n(-c3ccnc(N[C@@H]4CCN(C(=O)C5CC5)C4)n3)c2C1 (stereo partly drawn) [Compound 21d, 2-(benzo[d][1,3]dioxol-5-yl)-1-(2-(((R)-1-(cyclopropanecarbonyl)pyrrolidine-3-yl)amino)pyrimidin-4-yl)-1,4,5,6-tetracyclopenta[d]imidazol-5-carboxamide] |
| < 30 nM | CCOC(=O)C1Cc2nc(-c3ccc4c(c3)OCO4)n(-c3ccnc(N[C@@H]4CCN(C(=O)C5CC5)C4)n3)c2C1 (stereo partly drawn) [Compound 17d, ethyl 2-(benzo[d][1,3]dioxol-5-yl)-1-(2-(((R)-1-(cyclopropanecarbonyl)pyrrolidine-3-yl)amino)pyrimidin-4-yl)-1,4,5,6-tetracyclopenta[d]imidazol-5-carboxylate] |
| > 1000 nM | NC(=O)C1Cc2nc(-c3ccc4c(c3)OCO4)n(-c3ccnc(N[C@H]4CCN(C(=O)C5CC5)C4)n3)c2C1 (stereo partly drawn) [Compound 20d, 2-(benzo[d][1,3]dioxol-5-yl)-1-(2-(((S)-1-(cyclopropanecarbonyl)pyrrolidine-3-yl)amino)pyrimidin-4-yl)-1,4,5,6-tetracyclopenta[d]imidazol-5-carboxamide] |
| < 30 nM | CNC(=O)C1Cc2nc(-c3ccc4c(c3)OCO4)n(-c3ccnc(N[C@@H]4CCN(C(=O)C5CC5)C4)n3)c2C1 (some centres unmarked) [Compound 25d] |

Same assay, conditions: Table 5

| IC50 | Structure (SMILES) |
| --- | --- |
| < 30 nM | NC(=O)C1Cc2nc(-c3ccc4c(c3)CCO4)n(-c3ccnc(N[C@H]4CCCN(C(=O)C5CC5)C4)n3)c2C1 (stereo partly drawn) [Compound 22e, 1-(2-(((S)-1-(cyclopropanecarbonyl)piperidin-3-yl)amino)pyrimidin-4-yl)-2-(2,3-dihydrobenzofuran-5-yl)-1,4,5,6-tetracyclopenta[d]imidazol-5-carboxamide] |
| < 30 nM | NC(=O)C1Cc2nc(-c3ccc4c(c3)CCO4)n(-c3ccnc(N[C@@H]4CCCN(C(=O)C5CC5)C4)n3)c2C1 (stereo partly drawn) [Compound 23e, 1-(2-(((R)-1-(cyclopropanecarbonyl)piperidin-3-yl)amino)pyrimidin-4-yl)-2-(2,3-dihydrobenzofuran-5-yl)-1,4,5,6-tetracyclopenta[d]imidazol-5-carboxamide] |

More lines, now with the values behind:

| Structure (SMILES) | IC50 |
| --- | --- |
| NC(=O)C1Cc2nc(-c3ccc4c(c3)CCO4)n(-c3ccnc(N[C@H]4CCN(C(=O)C5CC5)C4)n3)c2C1 (stereo partly drawn) [Compound 20e, 1-(2-(((S)-1-(cyclopropanecarbonyl)pyrrolidine-3-yl)amino)pyrimidin-4-yl)-2-(2,3-dihydrobenzofuran-5-yl)-1,4,5,6-tetracyclopenta[d]imidazol-5-carboxamide] | < 30 nM |
| CCOC(=O)C1Cc2nc(-c3ccc4c(c3)CCO4)n(-c3ccnc(N[C@@H]4CCN(C(=O)C5CC5)C4)n3)c2C1 (stereo partly drawn) [Compound 17e, ethyl 1-(2-(((R)-1-(cyclopropanecarbonyl)pyrrolidine-3-yl)amino)pyrimidin-4-yl)-2-(2,3-dihydrobenzofuran-5-yl)-1,4,5,6-tetracyclopenta[d]imidazol-5-carboxylate] | < 30 nM |
| NC(=O)C1Cc2nc(-c3ccc4c(c3)CCO4)n(-c3ccnc(N[C@@H]4CCN(C(=O)C5CC5)C4)n3)c2C1 (stereo partly drawn) [Compound 21e, 1-(2-(((R)-1-(cyclopropanecarbonyl)pyrrolidine-3-yl)amino)pyrimidin-4-yl)-2-(2,3-dihydrobenzofuran-5-yl)-1,4,5,6-tetracyclopenta[d]imidazol-5-carboxamide] | < 30 nM |
| CCOC(=O)C1Cc2nc(-c3ccc4c(c3)CCO4)n(-c3ccnc(N[C@H]4CCCN(C(=O)C5CC5)C4)n3)c2C1 (stereo partly drawn) [Compound 18e, ethyl 1-(2-(((S)-1-(cyclopropanecarbonyl)piperidin-3-yl)amino)pyrimidin-4-yl)-2-(2,3-dihydrobenzofuran-5-yl)-1,4,5,6-tetracyclopenta[d]imidazol-5-carboxylate] | < 30 nM |
